The source made the active and inactive calls. No cut-off for these calls is given here.
What was measured:
[1] = tested on: DU-145; experiment: Cytotoxicity against human DU-145 cells assessed as reduction in cell viability at 10 uM incubated for 24 hrs by CCK8 assay relative to control; format: functional
[2] = tested on: DU-145; experiment: Cytotoxicity against human DU-145 cells assessed as reduction in cell viability after 24 hrs by CCK8 assay; format: functional, cell-based; conditions: DU-145, 24 h
[3] = tested on: DU-145; experiment: Inhibition of colony formation in human DU-145 cells at 12 to 24 uM incubated for 2 weeks with media replacement for every 3 days by crystal violet staining based microscopic analysis; format: functional, cell-based; conditions: dose microM 12-24, time 2.0 weeks
[4] = tested on: DU-145; experiment: Inhibition of cell migration in human DU-145 cells at 12 to 24 uM incubated for 24 hrs by wound healing assay; format: functional, cell-based; conditions: dose microM 12-24, time 24.0 hrs
[5] = tested on: DU-145; experiment: Antiinvasive activity against human DU-145 cells assessed as inhibition of cell migration at 12 to 24 uM incubated for 20 hrs by Boyden chamber assay; format: functional, cell-based; conditions: dose microM 12-24, time 20.0 hrs
[6] = tested on: DU-145; experiment: Inhibition of metastasis in human DU-145 cells assessed as reduction in MMP2 expression incubated for 48 hrs by Western blot analysis; format: functional, cell-based; conditions: dose microM 12-24, time 48.0 hrs
[7] = tested on: DU-145; experiment: Inhibition of metastasis in human DU-145 cells assessed as reduction in MMP9 expression incubated for 48 hrs by Western blot analysis; format: functional, cell-based; conditions: dose microM 12-24, time 48.0 hrs
[8] = tested on: DU-145; experiment: Inhibition of metastasis in human DU-145 cells assessed as reduction in MMP2 mRNA expression at 12 to 24 uM incubated for 48 hrs by qRT-PCR analysis; format: functional, cell-based; conditions: dose microM 12-24, time 48.0 hrs
[9] = tested on: DU-145; experiment: Inhibition of metastasis in human DU-145 cells assessed as reduction in MMP9 mRNA expression at 12 to 24 uM incubated for 48 hrs by qRT-PCR analysis; format: functional, cell-based; conditions: dose microM 12-24, time 48.0 hrs
[10] = tested on: DU-145; experiment: Modulatory activity of MAPK signaling pathway in human DU-145 cells assessed as reduction in ERK phosphorylation incubated for 24 hrs by Western blot analysis; format: cell-based; conditions: filed as modulator, dose microM 12-24, time 24.0 hrs
[11] = tested on: DU-145; experiment: Modulatory activity of MAPK signaling pathway in human DU-145 cells assessed as increase in JNK activation at 12 to 24 uM incubated for 24 hrs by Western blot analysis; format: cell-based; conditions: filed as modulator, dose microM 12-24, time 24.0 hrs
[12] = tested on: DU-145; experiment: Modulatory activity of MAPK signaling pathway in human DU-145 cells assessed as increase in p38 activation at 12 to 24 uM incubated for 24 hrs by Western blot analysis; format: cell-based; conditions: filed as modulator, dose microM 12-24, time 24.0 hrs
[13] = tested on: DU-145; experiment: Modulatory activity of MAPK signaling pathway in human DU-145 cells assessed as reduction in c-MYC expression at 12 to 24 uM incubated for 24 hrs by Western blot analysis; format: cell-based; conditions: filed as modulator, dose microM 12-24, time 24.0 hrs
[14] = tested on: DU-145; experiment: Modulatory activity of MAPK signaling pathway in human DU-145 cells assessed as beta-catenine expression at 12 to 24 uM incubated for 24 hrs by Western blot analysis; format: cell-based; conditions: dose microM 12-24, time 24.0 hrs
[15] = tested on: DU-145; experiment: Modulatory activity of MAPK signaling pathway in human DU-145 cells assessed as NFkappaB expression at 12 to 24 uM incubated for 24 hrs by Western blot analysis; format: cell-based; conditions: dose microM 12-24, time 24.0 hrs
[16] = tested on: DU-145; experiment: Modulatory activity of MAPK signaling pathway in human DU-145 cells assessed as EST-1 expression at 12 to 24 uM incubated for 24 hrs by Western blot analysis; format: cell-based; conditions: dose microM 12-24, time 24.0 hrs
[17] = tested on: PC-3; experiment: Cytotoxicity against human PC-3 cells assessed as reduction in cell viability at 40 uM incubated for 24 hrs by CCK8 assay relative to control; format: functional
[18] = tested on: PC-3; experiment: Inhibition of colony formation in human PC-3 cells incubated for 2 weeks with media replacement for every 3 days by crystal violet staining based microscopic analysis; format: functional, cell-based; conditions: dose microM 12-24, time 2.0 weeks
[19] = tested on: PC-3; experiment: Inhibition of cell migration in human PC-3 cells at 12 to 24 uM incubated for 24 hrs by wound healing assay; format: functional, cell-based; conditions: dose microM 12-24, time 24.0 hrs
[20] = tested on: PC-3; experiment: Inhibition of metastasis in human PC-3 cells assessed as reduction in MMP2 expression at 12 to 24 uM incubated for 48 hrs by Western blot analysis; format: functional, cell-based; conditions: dose microM 12-24, time 48.0 hrs
[21] = tested on: PC-3; experiment: Inhibition of metastasis in human PC-3 cells assessed as reduction in MMP9 expression at 12 to 24 uM incubated for 48 hrs by Western blot analysis; format: functional, cell-based; conditions: dose microM 12-24, time 48.0 hrs
[22] = tested on: PC-3; experiment: Modulatory activity of MAPK signaling pathway in human PC-3 cells assessed as reduction in ERK phosphorylation incubated for 24 hrs by Western blot analysis; format: cell-based; conditions: filed as modulator, dose microM 12-24, time 24.0 hrs
[23] = tested on: PC-3; experiment: Modulatory activity of MAPK signaling pathway in human PC-3 cells assessed as increase in JNK phosphorylation at 12 to 24 uM incubated for 24 hrs by Western blot analysis; format: cell-based; conditions: filed as modulator, dose microM 12-24, time 24.0 hrs
[24] = tested on: PC-3; experiment: Modulatory activity of MAPK signaling pathway in human PC-3 cells assessed as increase in p38 phosphorylation at 12 to 24 uM incubated for 24 hrs by Western blot analysis; format: cell-based; conditions: dose microM 12-24, time 24.0 hrs
[25] = tested on: PC-3; experiment: Modulatory activity of MAPK signaling pathway in human PC-3 cells assessed as reduction in c-MYC expression at 12 to 24 uM incubated for 24 hrs by Western blot analysis; format: cell-based; conditions: filed as modulator, dose microM 12-24, time 24.0 hrs
[26] = tested on: PC-3; experiment: Modulatory activity of MAPK signaling pathway in human PC-3 cells assessed as beta-catenine expression at 12 to 24 uM incubated for 24 hrs by Western blot analysis; format: cell-based; conditions: dose microM 12-24, time 24.0 hrs
[27] = tested on: PC-3; experiment: Modulatory activity of MAPK signaling pathway in human PC-3 cells assessed as NFkappaB expression at 12 to 24 uM incubated for 24 hrs by Western blot analysis; format: cell-based; conditions: dose microM 12-24, time 24.0 hrs
[28] = tested on: PC-3; experiment: Modulatory activity of MAPK signaling pathway in human PC-3 cells assessed as EST-1 expression at 12 to 24 uM incubated for 24 hrs by Western blot analysis; format: cell-based; conditions: dose microM 12-24, time 24.0 hrs

**Q.** `COc1cc(C2CC(=O)Nc3cc(C)c(C)cc32)cc(OC)c1OC` (stereo not drawn) was tested. Which Activity [1] did it give?
**A.** The Activity was 70%.

**Q.** And the IC50 [2]?
**A.** The IC50 was over 200 µM.

**Q.** And the inhibition [3]?
**A.** Its inhibition is “Active”.

**Q.** And the inhibition [4]?
**A.** The inhibition was “Active”.

**Q.** What about the inhibition [5] of the same molecule?
**A.** Its inhibition is “Active”.

**Q.** And the inhibition [6]?
**A.** The inhibition was “Dose-dependent effect”.

**Q.** And the inhibition [7]?
**A.** Its inhibition is “Dose-dependent effect”.

**Q.** And the inhibition [8]?
**A.** The inhibition was “Active”.

**Q.** What about the inhibition [9] of the same molecule?
**A.** The inhibition was “Active”.

**Q.** And the Activity [10]?
**A.** The Activity was “Dose-dependent effect”.

**Q.** And the Activity [11]?
**A.** The Activity was “Active”.

**Q.** And the Activity [12]?
**A.** The Activity was “Active”.

**Q.** And the Activity [13]?
**A.** Its Activity is “Active”.

**Q.** And the Activity [14]?
**A.** The Activity was “inactive”.

**Q.** What about the Activity [15] of the same molecule?
**A.** Its Activity is “inactive”.

**Q.** And the Activity [16]?
**A.** The Activity was “inactive”.

**Q.** What about the Activity [17] of the same molecule?
**A.** The Activity was 20%.

**Q.** And the inhibition [18]?
**A.** Its inhibition is “Dose-dependent effect”.

**Q.** What about the inhibition [19] of the same molecule?
**A.** The inhibition was “Active”.

**Q.** What about the inhibition [20] of the same molecule?
**A.** The inhibition was “Active”.

**Q.** And the inhibition [21]?
**A.** Its inhibition is “inactive”.

**Q.** And the Activity [22]?
**A.** Its Activity is “Active”.

**Q.** What about the Activity [23] of the same molecule?
**A.** The Activity was “Active”.

**Q.** And the Activity [24]?
**A.** Its Activity is “inactive”.

**Q.** And the Activity [25]?
**A.** The Activity was “Active”.

**Q.** And the Activity [26]?
**A.** The Activity was “inactive”.

**Q.** And the Activity [27]?
**A.** The Activity was “inactive”.

**Q.** What about the Activity [28] of the same molecule?
**A.** The Activity was “inactive”.

Source: ChEMBL document CHEMBL4725235, “Small molecule DTDQ exerts anti-metastatic effects in DU145 human castration-resistant prostate cancer cells via modulations of ERK, JNK, p38 and c-Myc signaling pathways” (Bioorg Med Chem Lett, 2020)
